Source: paper PMC8787488, “Two-Metal Ion-Dependent Enzymes as Potential Antiviral Targets in Human Herpesviruses” (mBio, 2022)

Tests used:
[1] = target: T1, His-UL30ΔN42 (Human alphaherpesvirus 1 strain KOS, UniProt P04292); test: gel-based primer extension polymerase assay; type: biochemical; details: 50 nM enzyme, dNTPs, 10 mM MgCl2, pH 7.6, 37°C
T1 construct: gene UL30; His-tagged, N-terminal 42 residues deleted; gift from Donald Coen; no UL42 mentioned

[2] = target: T2, UL12 (Human alphaherpesvirus 1 strain 17, UniProt P04294); test: PicoGreen dsDNA exonuclease assay; type: biochemical; details: 10 nM UL12, 1 nM linearized pUC19 DNA, 1 mM MgCl2, pH 8.2, 37°C
T2 construct: full-length alkaline nuclease, purified from baculovirus-infected Sf9 cells
T2 sequence (P04294 whole entry, looked up): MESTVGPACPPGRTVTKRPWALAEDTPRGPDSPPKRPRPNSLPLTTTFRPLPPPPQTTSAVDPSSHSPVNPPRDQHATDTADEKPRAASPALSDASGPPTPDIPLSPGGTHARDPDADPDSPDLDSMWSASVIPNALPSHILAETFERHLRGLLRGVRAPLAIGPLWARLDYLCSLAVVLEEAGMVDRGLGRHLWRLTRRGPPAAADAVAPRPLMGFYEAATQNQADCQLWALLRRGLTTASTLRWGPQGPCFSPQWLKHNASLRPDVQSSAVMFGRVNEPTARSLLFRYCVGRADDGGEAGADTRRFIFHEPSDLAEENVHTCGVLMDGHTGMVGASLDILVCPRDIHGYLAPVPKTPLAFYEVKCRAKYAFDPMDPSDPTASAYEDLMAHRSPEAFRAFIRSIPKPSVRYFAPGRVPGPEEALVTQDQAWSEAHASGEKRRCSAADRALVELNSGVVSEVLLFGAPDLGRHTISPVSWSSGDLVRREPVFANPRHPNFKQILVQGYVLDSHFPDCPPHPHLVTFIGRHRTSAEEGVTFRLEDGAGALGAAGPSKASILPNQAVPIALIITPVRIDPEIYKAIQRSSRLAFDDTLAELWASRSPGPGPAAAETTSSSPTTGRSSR

[3] = target: T3, ICP8Δ60 (Human alphaherpesvirus 1 strain KOS, UniProt P17470); test: thermal shift, nanoDSF (Tycho NT.[…]); type: binding; details: 20x molar excess of compound to protein, 5 mM MgCl2, pH 7.5, without ssDNA
T3 construct: gene DBP; 60-residue deletion; source not described
T3 sequence (P17470 1-1136, stated change not applied): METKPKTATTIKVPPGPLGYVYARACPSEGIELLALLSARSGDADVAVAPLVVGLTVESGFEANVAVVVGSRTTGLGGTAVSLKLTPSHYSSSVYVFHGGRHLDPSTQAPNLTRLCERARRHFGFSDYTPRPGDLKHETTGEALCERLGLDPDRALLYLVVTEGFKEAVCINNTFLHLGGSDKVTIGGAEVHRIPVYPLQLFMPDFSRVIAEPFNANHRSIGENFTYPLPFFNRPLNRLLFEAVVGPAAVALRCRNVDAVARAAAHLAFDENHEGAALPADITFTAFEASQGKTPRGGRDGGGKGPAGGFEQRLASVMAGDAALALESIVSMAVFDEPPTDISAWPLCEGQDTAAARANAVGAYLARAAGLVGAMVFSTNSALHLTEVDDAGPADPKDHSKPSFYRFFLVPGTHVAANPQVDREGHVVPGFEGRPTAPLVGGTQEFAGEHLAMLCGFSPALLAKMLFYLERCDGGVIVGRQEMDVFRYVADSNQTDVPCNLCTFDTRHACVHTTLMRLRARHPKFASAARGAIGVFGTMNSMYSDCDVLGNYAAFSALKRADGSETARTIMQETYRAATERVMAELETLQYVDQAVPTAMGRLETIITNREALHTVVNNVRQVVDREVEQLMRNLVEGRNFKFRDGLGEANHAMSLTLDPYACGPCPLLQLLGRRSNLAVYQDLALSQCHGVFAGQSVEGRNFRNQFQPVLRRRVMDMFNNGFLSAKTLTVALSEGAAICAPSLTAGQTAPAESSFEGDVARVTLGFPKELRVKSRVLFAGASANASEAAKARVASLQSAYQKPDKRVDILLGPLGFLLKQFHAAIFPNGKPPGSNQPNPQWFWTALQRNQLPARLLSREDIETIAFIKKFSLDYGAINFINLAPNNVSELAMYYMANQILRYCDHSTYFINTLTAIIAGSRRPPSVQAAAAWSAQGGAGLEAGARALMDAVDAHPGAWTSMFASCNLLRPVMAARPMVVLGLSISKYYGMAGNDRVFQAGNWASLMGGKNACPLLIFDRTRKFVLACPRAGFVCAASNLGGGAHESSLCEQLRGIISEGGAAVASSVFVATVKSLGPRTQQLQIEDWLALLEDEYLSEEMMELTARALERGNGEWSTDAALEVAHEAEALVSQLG

[4] = target: T4, UL15C (Human alphaherpesvirus 1 strain 17, UniProt P04295); test: dual-probe fluorescence nuclease assay; type: biochemical
T4 construct: gene TRM3; C-terminal nuclease domain, residues 471 to 736, pET28b(+), from E. coli BL21(DE3); without UL28 and UL33
T4 sequence (P04295 471-735): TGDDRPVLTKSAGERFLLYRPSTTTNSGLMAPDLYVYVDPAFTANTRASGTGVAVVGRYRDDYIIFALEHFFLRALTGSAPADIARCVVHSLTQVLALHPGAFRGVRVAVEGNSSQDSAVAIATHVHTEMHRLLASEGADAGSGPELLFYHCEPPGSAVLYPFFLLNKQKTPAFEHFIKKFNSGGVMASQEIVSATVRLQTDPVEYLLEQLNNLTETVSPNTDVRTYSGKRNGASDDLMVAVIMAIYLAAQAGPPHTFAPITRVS

T1 sequence (P04292 43-1235, stated change not applied): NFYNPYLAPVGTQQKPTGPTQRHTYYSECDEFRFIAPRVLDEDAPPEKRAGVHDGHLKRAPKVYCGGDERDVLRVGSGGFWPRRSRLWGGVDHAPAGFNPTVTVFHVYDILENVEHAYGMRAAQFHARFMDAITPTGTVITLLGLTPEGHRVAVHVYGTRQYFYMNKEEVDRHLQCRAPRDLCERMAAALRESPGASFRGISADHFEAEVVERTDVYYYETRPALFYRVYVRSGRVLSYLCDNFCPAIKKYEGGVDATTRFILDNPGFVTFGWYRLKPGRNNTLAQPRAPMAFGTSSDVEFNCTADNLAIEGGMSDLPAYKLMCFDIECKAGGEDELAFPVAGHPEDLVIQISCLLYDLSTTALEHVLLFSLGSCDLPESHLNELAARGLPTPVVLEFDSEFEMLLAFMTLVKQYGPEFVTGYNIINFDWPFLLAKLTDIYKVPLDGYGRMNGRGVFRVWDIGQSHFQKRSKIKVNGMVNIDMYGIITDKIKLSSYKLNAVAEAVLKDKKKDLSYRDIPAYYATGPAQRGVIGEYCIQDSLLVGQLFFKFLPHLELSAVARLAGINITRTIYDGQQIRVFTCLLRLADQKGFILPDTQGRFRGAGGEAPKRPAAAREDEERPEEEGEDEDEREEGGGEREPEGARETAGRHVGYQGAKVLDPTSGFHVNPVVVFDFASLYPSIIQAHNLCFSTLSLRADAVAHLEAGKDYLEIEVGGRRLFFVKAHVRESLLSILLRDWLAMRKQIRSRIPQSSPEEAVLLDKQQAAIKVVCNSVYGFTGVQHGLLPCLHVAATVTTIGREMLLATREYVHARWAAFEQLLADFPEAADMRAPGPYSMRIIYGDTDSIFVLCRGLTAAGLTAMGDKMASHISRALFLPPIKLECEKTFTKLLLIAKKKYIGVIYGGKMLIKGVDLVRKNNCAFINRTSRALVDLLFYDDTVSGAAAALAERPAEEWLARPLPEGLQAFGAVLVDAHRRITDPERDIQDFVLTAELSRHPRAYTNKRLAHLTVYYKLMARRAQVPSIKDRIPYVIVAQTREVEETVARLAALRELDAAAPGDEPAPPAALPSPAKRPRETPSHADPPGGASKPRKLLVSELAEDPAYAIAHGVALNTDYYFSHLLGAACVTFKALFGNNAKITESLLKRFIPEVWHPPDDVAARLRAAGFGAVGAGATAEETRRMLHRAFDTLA

Compound | inhibition at 20 μM [1] | % inhibition at 20 μM [2] | Ti [3] | inhibition at 12.5 µM [4]
O=C(Nc1ccc(Br)cc1)c1ccc2cccnc2c1O [AK-157] | only AK-157 and the known polymerase inhibitor phosphonoacetic acid (PAA) showed strong inhibition | strong inhibition was observed for PPG, AK-157, and AK-166 | – | –
CC(C)c1ccc(CNC(=O)c2ccc3cccnc3c2O)cc1 [AK-166] | – | strong inhibition was observed for PPG, AK-157, and AK-166 | – | –
O=c1c(O)cccc2cc(O)c(O)c(O)c12 [purpurogallin] | – | strong inhibition was observed for PPG, AK-157, and AK-166 | RAL had no appreciable interactions with ICP8, while PPG showed a modest effect | –
Cc1nnc(C(=O)NC(C)(C)c2nc(C(=O)NCc3ccc(F)cc3)c(O)c(=O)n2C)o1 [raltegravir] | – | – | – | ~80%
